Data reported in US20120005128A1, “METHODS FOR REDUCING THE RISK OF AN ADVERSE DRONEDARONE / CALCIUM CHANNEL BLOCKERS INTERACTION IN A PATIENT SUFFERING FROM ATRIAL FIBRILATION” (sanofi, priority 2010, published 2012).
Structures can show the parent of a compound that is named as a salt.

Assays:
[1] = ATHENA clinical study, patients with calcium channel blockers baseline medication; type: in vivo
From the text: Calcium channel blockers have been used in ATHENA clinical study and at the same rate in the dronedarone group and in the placebo group. About 13 to 20% of the patients had received one of these compounds during the study.
In the ATHENA trial, the concomitant administration of calcium antagonists and dronedarone was done according to the above mentioned instructions, i.e. start with low doses of the calcium antagonist and then increase the dose after ECG verification of good tolerability, if necessary and based on individual patient characteristics.
The relative risk (RR) was estimated using Cox's […] regression model.
The relative risk (RR) is the ratio of the rates of occurrence of a hospitalization or of a death among the patients on dronedarone, relative to the patients on placebo.
The percentage reduction x of a given event (hospitalization, death, cardiovascular death, etc.) is calculated in the following way: […]

[2] = 12-lead ECG (PR, QTcF intervals) in dronedarone/verapamil interaction study, Day 14; conditions: baseline Day 1, -0.5 h, least square means
[3] = Dronedarone/verapamil pharmacokinetic interaction crossover study, plasma PK on Day 14
[4] = dronedarone plus verapamil versus dronedarone alone
[5] = verapamil plus dronedarone versus verapamil alone
[6] = 331 patients with calcium channel blockers baseline medication, 122 events in placebo group (307 patients)
[7] = versus placebo, Cox model, calcium channel blockers baseline medication
[8] = versus placebo, calcium channel blockers baseline medication

For `CCCCc1oc2ccc(NS(C)(=O)=O)cc2c1C(=O)c1ccc(OCCCN(CCCC)CCCC)cc1` [Dronedarone, 2-n-Butyl-3-[4-(3-di-n-butylaminopropoxy)benzoyl]-5-methylsulphonamidobenzofuran], the “Risk of hypotension, bradycardia and heart failure” value ([1]; patients using both dronedarone and calcium antagonists) was “no increase of the risk of hypotension, bradycardia and heart failure”, the “Mean change (Eavr) in PR from baseline” value [2] was 9.7 ms and the “Mean change (Eavr) in QTcF from baseline” value [2] was 22.1 ms. For the same molecule, the “Ratio of geometric means, AUC0-12” value [3, 4] was 1.48 and the “Ratio of geometric means, Cmax” value [3, 4] was 1.42.

With `COc1ccc(CCNCCCC(C#N)(c2ccc(OC)c(OC)c2)C(C)C)cc1OC` (stereo not drawn) [NVP, norverapamil] the “Ratio of geometric means, AUC0-24” value [3, 5] was 1.29 and the “Ratio of geometric means, Cmax” value [3, 5] was 1.31.

For `COc1ccc(CCN(C)CCCC(C#N)(c2ccc(OC)c(OC)c2)C(C)C)cc1OC` (stereo not drawn) [VP, verapamil], the “Mean change (Eavr) in PR from baseline” value [2] was 4.2 ms and the “Mean change (Eavr) in QTcF from baseline” value [2] was 2.1 ms.

With `CCCCc1oc2ccc(NS(C)(=O)=O)cc2c1C(=O)c1ccc(OCCCN(CCCC)CCCC)cc1` [dronedarone hydrochloride] the “Number of events, hospitalization for congestive heart failure (CHF)” value ([1]; 331 patients with calcium channel blockers baseline medication, 23 events in placebo group (307 patients)) was 14, the “Number of events, cardiovascular hospitalization or death” value [1, 6] was 90 and the “Number of events, death” value [1, 6] was 90. The “Relative risk, cardiovascular hospitalization or death” value [1, 7] was 0.628, the “Relative risk, death” value [1, 7] was 0.628 and the “Relative risk, hospitalization for congestive heart failure (CHF)” value [1, 7] was 0.556. The “Decrease of CHF” value [1, 8] was 44%, the “Decrease of cardiovascular hospitalization or death” value [1, 8] was 37% and the Decrease of death [1, 8] was 37%.
